Broadly, the melting point is the temperature, or range, at which the solid turns liquid.

Structures are written as SMILES. Some results are limits rather than exact numbers.

Results on 86 compounds are retold here after a melting point compilation (Tetko et al.; mined from patent text by program, amines drawn as free bases though some values may be those of a salt).

Consider `O=C(NCC1CCN(c2cc3nc(C(=O)O)c(=O)[nH]c3cc2[N+](=O)[O-])C1)Nc1ccccc1` (stereo unspecified), for which the melting point was > 300 °C.
On to `O=C(O)[C@@H]1Cc2cc(Cl)cc(Cl)c2O[C@@H]1C(F)(F)F`, for which the melting point lay within 100 to 101 °C.
The same measure for `O=c1c(Cl)c(Cl)cnn1CC(Cl)=CCl`: 93.7 to 94.6 °C; for `CCN(CC)CCOc1cccc2c1c1cc(Cl)ccc1n2Cc1ccccc1`: 96 to 97.5 °C; for `COc1ccc(C(=O)Nc2ccc3cccnc3n2)cc1`: 150 °C.
In turn, `COC(=O)CCC(NC(=O)CCCC#Cc1cnc2nc(NC(=O)C(C)(C)C)nc(O)c2c1)C(=O)OC` (stereo unspecified) came in with a melting point of 159 to 160 °C.
`COc1ccc(OC)c(CC(=O)CN2N=C(c3ccc(Cl)cc3)c3ccccc3-n3c(C)nnc32)c1` yielded a melting point of 217 to 218 °C.
In the case of `Nc1nc2ccccc2c2c1ncn2CC1(O)CCCCC1`, the melting point is > 250 °C.
In the case of `C=CCC(O)CCCCCCCCCOc1ccccc1` (stereo unspecified), the melting point was in the range of 50 to 52 °C.
Take `CC(=O)Nc1nc(CCc2ccc(NC(=O)OC(C)(C)C)cc2)c(C(=O)Nc2ccccc2)s1`: the melting point fell in the range of 199 to 200 °C.
With `COc1ccc(Cn2c(=O)c3ccccc3n(CCCCl)c2=O)cc1`, the melting point was 124 to 125 °C.
Consider `O=C(C1CCN(c2ccncc2)CC1)N1CCC(Oc2ccc(Br)cc2)CC1`, for which the melting point lay within 127 to 130 °C.
The same measure for `CCc1nc(C(=O)OC)c(Cl)c(N)c1F`: 109 to 110 °C; for `CCN(C)C(=O)N1N=C2c3cc(F)ccc3OC[C@@H]2[C@@H]1c1ccccc1` (racemic): 133 to 137 °C; for `CC(C)(C)c1cc(Nc2ccc(C(=O)O)cc2)cc(C(C)(C)C)c1O`: 241 to 243 °C.
The same measure for `Cc1c(C(=O)OCc2ccccc2)sc(NC(=O)C(F)(F)F)c1C(=O)OC(C)(C)C`: 136 to 138 °C; for `O=C(N[C@H]1CC[C@H](CCN2CCN(c3nccc4c3OCC4)CC2)CC1)c1cnc(N2CCOCC2)cn1`: 200 °C; for `Nc1ncc(-c2ccc(=O)[nH]n2)c(-c2cccnc2)n1`: 256 °C.
`CCCN(CCC)CCCOc1ccc(S(=O)(=O)c2c(C)cn3ccccc23)cc1` gave a melting point of 107 to 108 °C.
`O=C(/C=C/c1cccc(F)c1)NC1CC1` yielded a melting point of 90 to 91 °C.
Turning to `COc1ccc(F)cc1C(C)(C)CC(O)(Cn1ccc(=N)c2ccccc21)C(F)(F)F` (stereo unspecified), the melting point lay within 137 to 140 °C.
In turn, `O=C(O)CCCCCCCCCCCCCCCCC(=O)ON1C(=O)CCC1=O` returned a melting point of 120 to 122 °C.
As for `Cc1cccc2ncc(C(=O)Nc3ccc(Cl)cc3)c(=O)n12`, the melting point lay in the range of 202 to 204 °C.
`COc1cc(COc2nn(Cc3ccccc3)cc2CO)ccc1OCc1nc(-c2ccco2)oc1C`: the melting point is 104 to 105 °C.
With `CN1CCc2cc[nH]c2C(c2ccccc2)C1` (stereo unspecified), the melting point is 90 to 91 °C.
The compound `Nc1ccc(NC(=O)c2ccc(N)cc2O)cc1` yielded a melting point of 235 to 238 °C.
`COc1cc2c3c(c1)c(Cl)c(C(=O)N1CCc4ccccc41)c(=O)n3CCO2`: the melting point was 158 to 160 °C.
`COC(=O)NC12CC=CCC1CSc1ccccc12` (stereo unspecified) had a melting point of 150 to 152 °C.
The compound `O=c1[nH]c2cc(C(F)(F)F)ccc2n1-c1cc(Cl)cc(Br)c1O` displayed a melting point of 254 to 255 °C.
The compound `CCCCCCCCCCOc1ccc(CC(C)NCC(O)c2cccc(Cl)c2)cc1` (stereo unspecified) registered a melting point of 59 to 61 °C.
The same measure for `O=C(C[N+](=O)[O-])c1ccc(-c2ccc(-c3ccc4ccccc4n3)cc2)cc1`: 160 to 162 °C; for `Cc1cc(C)cc(S(=O)c2cccc(N)c2C#N)c1` (stereo unspecified): 190 to 191 °C.
`[O-][N+]1=Cc2cccc3c2C(C1)c1ccccc1CC3` (stereo unspecified): the melting point was in the range of 156 to 158 °C.
Consider `COc1ccccc1C1(O)OC(=O)C(c2ccc3c(c2)OCO3)=C1Cc1ccc2nsnc2c1` (stereo unspecified), for which the melting point worked out at 172 °C.
As to `COc1cccc(CO)c1CO`, the melting point stood at 95 °C.
`O=S(=O)(c1ccccc1)C(Cc1ccccc1)c1ccc(C(O)(C(F)(F)F)C(F)(F)F)cc1` (stereo unspecified): the melting point came to 157 °C.
The same measure for `Cc1ccc(-c2c(NS(=O)(=O)c3ccc(C(C)(C)C)cc3)ncnc2OCCOc2ncc(C#CC(C)(C)O)cn2)cc1`: 172 to 174 °C; for `Cc1cc(-c2cccc(C(=O)CC(=O)Nc3cc(-c4ccccc4F)ccc3NC(=O)OC(C)(C)C)c2)on1`: 158 to 160 °C.
For `COC(=O)c1cc(C)nc(OC)n1`, the melting point was 101 to 103 °C.
Compound `C=CCc1cc(C=C2N=C(C)OC2=O)ccc1OC(C)=O` displayed a melting point of 108 to 109 °C.
`CC(=O)Nc1nc(CCc2ccc(NC(=O)OC(C)(C)C)cc2)c(C(=O)O)s1`: the melting point is 237 to 238 °C.
Compound `COc1ccc(Oc2c(Cl)cc(-n3ncc(=O)[nH]c3=O)cc2Cl)cc1NS(=O)(=O)c1ccc(F)cc1` returned a melting point of 90 to 96 °C.
The same measure for `O=C1NCCc2c(-c3ccccc3CCCO)[nH]c3cccc1c23`: 234 °C; for `O=C(O)[C@@H]1CCCN1C(=O)C1CCC1S` (stereo partly specified): 145 to 146 °C; for `CC(Br)C(=O)c1ccccc1NCC(=O)O` (stereo unspecified): 144 to 147 °C.
`CC(NC(=O)c1c[nH]c2ncc(-c3nn(CC(O)CO)c4cc(Cl)ccc34)nc12)C(=O)N1CC(C#N)C1` (stereo unspecified): the melting point fell in the range of 165 to 180 °C.
Take `CC(C)(C)C(NC(=O)c1cc(Cl)cc(Cl)c1)Nc1c(Nc2cncc(C(F)(F)F)c2)c(=O)c1=O` (stereo unspecified): the melting point fell in the range of 233 to 234 °C.
Compound `Cn1c(CC(=O)O)cc(Cl)c1C(=O)c1ccc(S(C)=O)cc1` (stereo unspecified) came in with a melting point of 222 to 223 °C.
`CC(C)NCC(O)c1cc(Cl)c(N)c(C(F)(F)F)c1` (stereo unspecified) showed a melting point of 104 to 106 °C.
`CCCCCCCCCCCC1CC(O)C(CCCCCC)C(=O)O1` (stereo unspecified) returned a melting point of 98 to 99 °C.
`O=C1CCCCCCCCCCC(O)CCCO1` (stereo unspecified): the melting point lay within 59 to 61 °C.
Turning to `O=C1CCC(c2ccc(CCCN3CCN(c4ccccc4)CC3)cc2)N1` (stereo unspecified), the melting point is 130 °C.
Compound `COc1ccc(C2CC(O)CCC2[N+](=O)[O-])cc1OC` (stereo unspecified) gave a melting point of 126 to 127 °C.
The same measure for `CC1=C(c2ccc(C(=O)N3Cc4ccc(C(=O)O)n4Cc4ccccc43)cc2)CCCC1`: 171 °C.
`CN1CCC(=C2c3ccc(Cl)cc3CCn3ccnc32)CC1` registered a melting point of 187 °C.
The result for `Cc1sc(C(=O)O)cc1CC#N` reads 196 to 198 °C.
`CC(C#Cc1ccc(Oc2c(F)cccc2F)o1)N(O)C(N)=O` (stereo unspecified) registered a melting point of 161 °C.
For `CNC(=O)c1ccc(-c2ccc3oc(C4CCN(C(=O)OC(C)C)CC4)nc3c2)cn1`, the melting point was in the range of 158 to 161 °C.
The same measure for `CC(C)(C)OC(=O)N1C[C@@H](C=O)CC1=O`: 120 to 122 °C.
The compound `Cc1cc(=O)n(Cc2ccccc2)c2cc(OCc3nnn[nH]3)cc(OCc3nnn[nH]3)c12` had a melting point of 246 to 249 °C.
The compound `CCCN(C1CCC(c2c[nH]c3ccc(F)cc23)CC1)C1COc2cccc(OC)c2C1` (stereo unspecified) returned a melting point of 148 °C.
With `CCCc1ccc2c(c1CCC(=O)O)CCC(NS(=O)(=O)c1ccc(Cl)cc1)C2` (stereo unspecified), the melting point was 165 to 167 °C.
Consider `c1cc2ncc3c(n2n1)N(C1CCCC1)CC3`, for which the melting point was 181 °C.
`CN(C)CCNC(=O)c1cccc(-c2nnc(CSCCOc3ccccc3)o2)c1` came in with a melting point of 64 °C.
`O=C(Nc1ccccc1)c1cnc2c(C(F)(F)F)cccc2c1-c1ccccc1`: the melting point lay in the range of 207 to 208 °C.
In turn, `CCCN(CCN1CCN(C(=O)c2cc3ccccc3[nH]2)CC1)C1CCc2c(O)cccc2C1` (stereo unspecified) displayed a melting point of 169 to 170 °C.
As to `CCCOC(=O)C1=C(C)NC(C)=C(C(=O)OCC)C1c1ccccc1C#N` (stereo unspecified), the melting point was found to be 156 °C.
In turn, `Cc1c(Cl)ccnc1C(=O)NCCNC(=O)OC(C)(C)C` yielded a melting point of 134 to 135 °C.
Take `Cn1ncc(C(=O)N[C@H]2CCOC2)c1C(=O)Nc1ccn2nc(-c3ccccc3)nc2c1`: the melting point is > 250 °C.
The same measure for `O=C(NO)C(CC(=O)N1CCOCC1)NS(=O)(=O)c1ccc(-c2ccc(Cl)cc2)cc1` (stereo unspecified): 139 to 141 °C; for `CCC12CCC(=O)C=C1c1c(cc(OCC(=O)O)c(Cl)c1Cl)C2C` (stereo unspecified): 212 to 214 °C; for `COc1ccc(C(C)(C)C)cc1C(=O)NCCc1ccc(OC)c(S(N)(=O)=O)c1`: 165 to 168 °C.
The compound `O=C(CCc1ccccc1)NC(C(=O)Nc1n[nH]c(=S)s1)c1ccccc1` (stereo unspecified) displayed a melting point of 196 to 198 °C.
In turn, `CCOC(=O)c1c2n(c3cc(N4CCN(CC(C)=O)CC4)c(F)cc3c1=O)C(C)S2` (stereo unspecified) registered a melting point of 196 to 200 °C.
The compound `BrC(c1ccccc1)c1ccc2ccccc2c1` (stereo unspecified) gave a melting point of 89 to 90 °C.
Consider `CN1CCC(Oc2ccccc2[N+](=O)[O-])(c2ccccc2)CC1`, for which the melting point lay in the range of 80 to 82 °C.
For the compound `COc1cc(C=C(N)C(C)=O)ccc1OCC(O)CNC(C)C` (stereo unspecified), the melting point lay in the range of 139 to 140 °C.
The compound `COC(=S)OC(C(=O)OC(c1ccccc1)c1ccccc1)c1ccccc1` (stereo unspecified) yielded a melting point of 74 °C.
Take `CCNC(=O)c1cc(C)c(C(c2cc(F)ccc2F)S(=O)(=O)c2ccc(F)cc2)cn1` (stereo unspecified): the melting point lay within 191 to 193 °C.
With `CC1(C)CCc2c(-c3ccoc3)nc3sc4c(NCc5ccncc5)ncnc4c3c2C1`, the melting point lay within 265 to 266 °C.
The compound `COC(=O)C1=C(c2cc(OC)c(OC)c(OC)c2)c2ccccc2S(=O)(=O)N1Cc1ccc2c(c1)OCO2` yielded a melting point of 182 to 183 °C.
Take `CC(C)(CC(=O)c1ccc2c(c1)CC(N1C(=O)c3ccccc3C1=O)C2)C(=O)O` (stereo unspecified): the melting point is 238 to 240 °C.
For the compound `O=C1C[C@@H]2[C@@H](CC[C@H](CCc3ccccc3)OC3CCCCO3)[C@H](OC(=O)c3ccc(-c4ccccc4)cc3)C[C@@H]2O1` (stereo partly specified), the melting point is 103 to 105 °C.
`NC(=O)c1cccc(OCCF)c1OCCF` came in with a melting point of 100 to 101 °C.
`Cc1oc(-c2ccco2)nc1COc1ccc(COc2nn(Cc3ccccc3)cc2C(N)=O)cc1` yielded a melting point of 139 to 140 °C.
The compound `COC(=O)C(=O)c1c(F)cc(OCCOc2ccc3ccccc3c2)cc1F` had a melting point of 130 to 131 °C.
